# From publication PMC5322940 (Cell, 2016)
# Experiments:
# WT CB1 = WT CB1 (Homo sapiens, UniProt P21554); assay: Wash out experiment followed by [3H]-CP55,940 saturation binding
# hCB1R [1] = target: T1, hCB1R (Homo sapiens, UniProt P21554); type: cell-based
# CB1 [2] = target: CB1 (Mus musculus, UniProt P47746); assay: [35S]GTPγS binding to CB1 in C57 mouse cerebellum membranes; type: biochemical
# hCB1R [3] = target: T1, hCB1R; type: cell-based; remark: listed apart in the source
# hCB1 WT receptor = hCB1 WT receptor (Homo sapiens, UniProt P21554); assay: biochemical; type: binding
# [4] = system: hCB1 Phe170^2.57Ala or Phe174^2.61Ala; assay: Functional studies in mutant hCB1-CHO cells, Phe170Ala or Phe174Ala; type: cell-based, human
# CB1 [5] = details: cited from earlier work
# [6] = system: hCB1 Phe170^2.57Trp or Phe174^2.61Trp; assay: Functional studies in mutant hCB1-CHO cells, Phe170Trp or Phe174Trp; type: cell-based, human; details: Phe170Ala/Trp or Phe174Ala/Trp vs WT
# [7] = agonist, mouse cerebellum, mean ± S.E.M.
# Sequence of CB1 (Mus musculus, UniProt P47746) (P47746 whole entry): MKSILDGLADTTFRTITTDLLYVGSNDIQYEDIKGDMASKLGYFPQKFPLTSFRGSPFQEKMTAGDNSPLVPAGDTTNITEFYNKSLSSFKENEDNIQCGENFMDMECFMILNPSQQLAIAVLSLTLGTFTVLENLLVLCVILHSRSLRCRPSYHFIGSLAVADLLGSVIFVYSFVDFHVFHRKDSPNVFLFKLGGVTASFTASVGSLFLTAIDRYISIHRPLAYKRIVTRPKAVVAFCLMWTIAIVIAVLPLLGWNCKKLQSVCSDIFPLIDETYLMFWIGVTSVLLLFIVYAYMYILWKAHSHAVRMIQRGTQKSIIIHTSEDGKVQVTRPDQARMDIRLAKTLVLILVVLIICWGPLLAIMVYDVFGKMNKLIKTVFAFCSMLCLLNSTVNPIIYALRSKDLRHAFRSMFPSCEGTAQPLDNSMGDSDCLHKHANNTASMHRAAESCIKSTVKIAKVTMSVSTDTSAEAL
# T1 sequence (P21554 whole entry): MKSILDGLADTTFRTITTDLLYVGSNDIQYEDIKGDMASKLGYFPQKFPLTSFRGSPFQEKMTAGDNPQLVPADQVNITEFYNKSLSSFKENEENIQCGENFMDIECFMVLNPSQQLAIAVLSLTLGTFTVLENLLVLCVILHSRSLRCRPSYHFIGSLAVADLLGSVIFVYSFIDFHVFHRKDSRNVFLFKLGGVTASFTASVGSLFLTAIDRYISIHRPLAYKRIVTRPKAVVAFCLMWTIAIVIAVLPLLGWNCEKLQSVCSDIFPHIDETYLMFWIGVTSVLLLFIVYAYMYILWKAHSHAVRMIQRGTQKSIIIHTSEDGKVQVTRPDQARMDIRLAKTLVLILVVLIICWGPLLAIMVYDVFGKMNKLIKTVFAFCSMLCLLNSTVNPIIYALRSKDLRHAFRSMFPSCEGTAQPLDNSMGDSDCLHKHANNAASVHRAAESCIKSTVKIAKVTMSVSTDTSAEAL
# Sequence of hCB1 WT receptor (P21554 whole entry): as above
# Sequence of WT CB1 (P21554 whole entry): as above
structure (smiles),measurement,setting,value
"Cc1c(C(=O)NN2CCCCC2)nn(-c2ccc(Cl)cc2Cl)c1-c1ccc(C#CCCO[N+](=O)[O-])cc1 [AM6538, 4-(4-(1-(2,4-dichlorophenyl)-4-methyl-3-(piperidin-1-ylcarbamoyl)-1H-pyrazol-5-yl)phenyl)but-3-yn-1-yl nitrate]","Effect on subsequent [3H]-CP55,940 binding after pretreatment and washout",WT CB1,wash-resistant binding
same,Mode of antagonism of β-arrestin2 recruitment,hCB1R [1],competitive antagonist
same,Mode of antagonism of [35S]-GTPγS binding,CB1 [2],Competitive antagonism was confirmed
same,Mode of antagonism of CB1-mediated inhibition of adenylyl cyclase activity,hCB1R [3],competitive antagonist
same,Ki,hCB1 WT receptor,3.4 ± 1 nM
same,"Percentage of remaining binding (Bmax) of [3H]-CP55,940",hCB1 WT receptor,~ 30%
same,Effect of mutation on antagonist functional affinity,[4],dramatically reduced functional affinity
Cc1c(C(=O)NN2CCS(=O)(=O)CC2)nn(-c2ccc(Cl)cc2Cl)c1-c1ccc(C#CCCC#N)cc1 [AM6545],Affinity and mode of action at CB1,"CB1 [5]; ref Tam et al., 2010",high affinity CB1 neutral antagonist
"CCCCCCC(C)(C)c1ccc([C@@H]2C[C@H](O)CC[C@H]2CCCO)c(O)c1 [CP55,940]",EC50,CB1 [2]; [7],63 ± 5.5 nM
same,Emax,CB1 [2]; [7],2.40 ± 0.04 fold over baseline
same,Effect of mutation on agonist potency,[6],do not alter the potency
same,Effect of mutation on agonist potency,[4]; Phe170Ala or Phe174Ala vs WT,neither mutation alters the potency
C[C@H](NC(=O)C(C)(C)Oc1ccc(C(F)(F)F)cn1)[C@@H](Cc1ccc(Cl)cc1)c1cccc(C#N)c1 [Taranabant],Affinity with CB1,"CB1 [5]; among rimonabant, otenabant and taranabant, ref Table S2",highest affinity
Cc1c(C(=O)NN2CCCCC2)nn(-c2ccc(Cl)cc2Cl)c1-c1ccc(Cl)cc1 [rimonabant],Effect of mutation on antagonist functional affinity,[4],dramatically reduced functional affinity
